Laboratory results published in EP1099690A1, “MONOCYCLIC $g(b)-LACTAM COMPOUNDS AND CHYMASE INHIBITORS CONTAINING THE SAME” (SHIONOGI & CO., LTD., priority 1998, dated 2000).

Molecular target: T1, human chymase (Homo sapiens, UniProt P23946)
T1 sequence (P23946 22-247): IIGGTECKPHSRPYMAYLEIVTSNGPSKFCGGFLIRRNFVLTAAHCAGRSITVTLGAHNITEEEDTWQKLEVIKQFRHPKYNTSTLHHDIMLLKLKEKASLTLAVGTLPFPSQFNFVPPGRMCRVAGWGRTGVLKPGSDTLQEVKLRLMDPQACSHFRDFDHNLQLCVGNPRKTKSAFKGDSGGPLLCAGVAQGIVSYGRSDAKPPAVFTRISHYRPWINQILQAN
Assay: Chymase inhibitory activity (Suc-Ala-Ala-Pro-Phe-pNA substrate, absorption 405 nm)
Assay type: biochemical
Settings: purified human chymase, 30 minutes at 37 °C preincubation, substrate 0.5 mM
Protocol: Compound (I) was dissolved in dimethylsulfoxide (DMSO) at 10^-2 M. Concentration of DMSO for activity measurement was 1 %.
Compound (I) dissolved in DMSO and purified human chymase (Takai et al., Clinica Chimica Acta 265, 1997, 13-20) were added to a buffer (0.1M Tris-HCl, 1.8M NaCl pH8.0). After the mixture was treated for 30 minutes at 37 °C, Suc-Ala-Ala-Pro-Phe-pNA (BACHEM Feinchemikalien AG) was added at 0.5 mM as a substrate and the mixture was enzymatically reacted at 37 °C.
After the reaction, the absorption intensity (405 nm) of the solution was measured to calculate the inhibitory rate.

IC50 [nM]	SMILES
2.2	C[C@@H](NC(=O)N1C(=O)[C@@H](Cc2ccccc2)[C@@H]1Oc1ccc(C(=O)N(C)CCN(C)C)cc1)c1ccccc1 [Compound I-38]
1.9	C[C@@H](NC(=O)N1C(=O)[C@@H](Cc2ccccc2)[C@@H]1Oc1ccc(C(=O)N2CCC[C@@H]2C)cc1)c1ccccc1 [Compound I-41]
3.8	C=CCNC(=O)c1ccc(O[C@H]2[C@H](Cc3ccccc3)C(=O)N2C(=O)N[C@H](C)c2ccccc2)cc1 [Compound I-44]
3	C[C@@H](NC(=O)N1C(=O)[C@@H](Cc2ccccc2)[C@@H]1Oc1ccc(C(=O)OCCN(C)C)cc1)c1ccccc1 [Compound I-47]
4.3	C[C@@H](NC(=O)N1C(=O)[C@@H](Cc2ccccc2)[C@@H]1Oc1ccc(CC(=O)O)cc1)c1ccccc1 [Compound I-49]
30	C[C@@H](NC(=O)N1C(=O)[C@@H](Cc2ccccc2)[C@@H]1Oc1ccc(CC(=O)OCCN(C)C)cc1)c1ccccc1 [Compound I-51]
5.2	C[C@@H](NC(=O)N1C(=O)[C@@H](Cc2ccccc2)[C@@H]1Oc1ccc(/C=C/C(=O)O)cc1)c1ccccc1 [Compound I-52]
17	C[C@@H](NC(=O)N1C(=O)[C@@H](Cc2ccccc2)[C@@H]1Oc1cccc(C(=O)O)c1)c1ccccc1 [Compound I-55]
0.18	C[C@@H](NC(=O)N1C(=O)[C@@H](Cc2ccccc2)[C@H]1Oc1ccc(C(=O)N2CCOCC2)cc1)c1ccccc1 [Compound I-67]
16.2	C[C@@H](NC(=O)N1C(=O)[C@@H](Cc2ccccc2)[C@H]1Oc1ccc(C(=O)OCc2ccccc2)cc1)c1ccccc1 [Compound I-69]
1.28	CCN(Cc1ccccc1)C(=O)c1ccc(O[C@@H]2[C@H](Cc3ccccc3)C(=O)N2C(=O)N[C@H](C)c2ccccc2)cc1 [Compound I-70]

Continued, compound first:

SMILES	IC50 [nM]
CC(=O)O[C@H]1[C@H](Cc2ccccc2)C(=O)N1C(=O)NC(C)c1ccccc1 (stereo partly drawn) [Compound I-36]	4.2
C[C@@H](NC(=O)N1C(=O)[C@@H](Cc2ccccc2)[C@@H]1Oc1ccc(C(=O)N2CCOCC2)cc1)c1ccccc1 [Compound I-43]	1.08
C[C@@H](NC(=O)N1C(=O)[C@@H](Cc2ccccc2)[C@@H]1Oc1ccc(C(=O)NCc2ccccc2)cc1)c1ccccc1 [Compound I-45]	20
C[C@@H](NC(=O)N1C(=O)[C@@H](Cc2ccccc2)[C@@H]1Oc1ccc(C(=O)Nc2ccccc2)cc1)c1ccccc1 [Compound I-46]	31
C[C@@H](NC(=O)N1C(=O)[C@@H](Cc2ccccc2)[C@@H]1Oc1ccc(CC(=O)N2CCN(C)CC2)cc1)c1ccccc1 [Compound I-50]	1.13
C[C@@H](NC(=O)N1C(=O)[C@@H](Cc2ccccc2)[C@@H]1Oc1ccc(/C=C/C(=O)N2CCN(C)CC2)cc1)c1ccccc1 [Compound I-54]	3.5
C[C@@H](NC(=O)N1C(=O)[C@@H](Cc2ccccc2)[C@@H]1Oc1cccc(C(=O)N2CCN(C)CC2)c1)c1ccccc1 [Compound I-56]	2.95
C[C@@H](NC(=O)N1C(=O)[C@@H](Cc2ccccc2)[C@@H]1Sc1ccc(C(=O)O)cc1)c1ccccc1 [Compound I-57]	24
C[C@@H](NC(=O)N1C(=O)[C@@H](Cc2ccccc2)[C@@H]1Sc1ccc(C(=O)N2CCN(C)CC2)cc1)c1ccccc1 [Compound I-58]	5.7
C[C@@H](NC(=O)N1C(=O)[C@@H](Cc2ccccc2)[C@H]1Oc1ccc(C(=O)NCc2ccccc2F)cc1)c1ccccc1 [Compound I-68]	0.68
CC(OC(=O)c1ccc(O[C@@H]2[C@H](Cc3ccccc3)C(=O)N2C(=O)N[C@H](C)c2ccccc2)cc1)c1ccccc1 (stereo partly drawn) [Compound I-71]	19
C[C@@H](NC(=O)N1C(=O)[C@@H](Cc2ccccc2)[C@H]1Oc1ccc(C(=O)NNc2ccccc2)cc1)c1ccccc1 [Compound I-73]	0.92
C[C@@H](NC(=O)N1C(=O)[C@@H](Cc2ccccc2)[C@H]1Oc1ccc(C(=O)N[C@@H](Cc2ccccc2)C(=O)OCc2ccccc2)cc1)c1ccccc1 [Compound I-74]	8.6
